The values that follow come from US9120749B2, “Quinoline derivatives and MELK inhibitors containing the same” (ONCOTHERAPY SCIENCE, INC., priority 2010, dated 2015).

What is called IC50 is the point on the concentration scale where inhibition reaches its midpoint.

Structures can show the parent of a compound that is named as a salt. Where two headings read alike, the source gives them in different places.

One experiment deals with DU4475. In words: Cell-based assay: anti-proliferative activity, Cell Counting Kit-8, 72 hours (DU4475). For orientation: Tetrazolium assays rely on reduction of a dye to a coloured formazan, in cell work by metabolically active cells.
Another experiment has as its target MELK (Homo sapiens, UniProt Q14680). Nature of the experiment: Kinase assay: MELK activity, phosphorylation of FITC-labeled histone H3 peptide measured by IMAP fluorescence polarization. It counts as biochemical. The conditions noted are these: read-out: IC50 (μM) (kinase assay). An outline of the steps:
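FP readout: FITC-histone H3 peptide phosphorylation, read 0.5 h (RT) after stopping with 3x volume of IMAP progressive binding solution. Final DMSO 1%.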
On the technique in general: Fluorescence polarisation rises when a labelled molecule tumbles more slowly, as on binding a larger partner.

For another experiment, the system named is HT-1197 cells. In words: Cell-based assay: anti-proliferative activity, Cell Counting Kit-8, 72 hours (HT-1197, negative control without MELK expression). The following applies: 72 hours. An outline of the steps: (§1)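 Cellular growth is read by CCK-8 colorimetric kit 72 h after inhibitor addition to seeded cells, and IC50 values are derived from the resulting data; MELK protein levels in these lines are checked beforehand by immunoblotting whole crude lysate.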

In another experiment the test system is T47D cells. Nature of the experiment: Cell-based assay: anti-proliferative activity, Cell Counting Kit-8, 72 hours (T47D). An outline of the steps: as §1
A further experiment relates to 22Rv1. Nature of the experiment: Cell-based assay: anti-proliferative activity, Cell Counting Kit-8, 72 hours (22Rv1). The following applies: Homo sapiens; 22Rv1 cells. On the procedure:
Active candidate inhibitors against MELK were evaluated for their target-specific cytotoxicity using T47D, A549, BT-549, and HT-1197 cells was used for negative control. 100 micro-L of cell suspension was seeded onto 96-well microtiter plate (ViewPlate-96FTC, PerkinElmer). The initial cell concentration of T47D, A549, BT-549, and HT-1197 were 3,000 cells/well, 2,000 cells/well and 2,500 cells/well, respectively. Cellular growth was determined using Cell Counting Kit-8 (DOJINDO) at 72 hours after the exposure of the candidate inhibitors. […] Accurate IC50 values were calculated as described previously.

Another experiment has as its system A549 cells. In words: Cell-based assay: anti-proliferative activity, Cell Counting Kit-8, 72 hours (A549). The following applies: 72 hours. An outline of the steps: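 A549 cells were seeded in 96-well plates and exposed to candidate inhibitors for 72 hours. Cell growth was then measured with Cell Counting Kit-8, and IC50 values were calculated from the resulting growth data.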

In the next experiment the test system is DU4475 cells. In words: Cell-based assay: anti-proliferative activity, Cell Counting Kit-8, 72 hours (DU4475). The conditions noted are these: Homo sapiens, DU-4475.
Another experiment relates to 22Rv1 cells. In words: Cell-based assay: anti-proliferative activity, Cell Counting Kit-8, 72 hours (22Rv1). The following applies: Homo sapiens.
Where [1] appears, read: HT1197 cells (negative control, no MELK expression), hydrochloride.
[2] abbreviates: Homo sapiens, HT1197, 72 h, HT1197 cells (negative control, no MELK expression).
[3] abbreviates: HT1197 cells (negative control, no MELK expression).
The mark [4] stands for this setting: 50 micro-M ATP, FITC-labeled histone H3 peptide substrate, IMAP fluorescence polarization.
Where [5] appears, read: MELK kinase assay, IMAP fluorescence polarization, 50 micro-M ATP.
Setting [6] is: Homo sapiens, HT1197, 72 h, HT1197 cells (negative control).

Sequence of MELK (Q14680 whole entry, looked up): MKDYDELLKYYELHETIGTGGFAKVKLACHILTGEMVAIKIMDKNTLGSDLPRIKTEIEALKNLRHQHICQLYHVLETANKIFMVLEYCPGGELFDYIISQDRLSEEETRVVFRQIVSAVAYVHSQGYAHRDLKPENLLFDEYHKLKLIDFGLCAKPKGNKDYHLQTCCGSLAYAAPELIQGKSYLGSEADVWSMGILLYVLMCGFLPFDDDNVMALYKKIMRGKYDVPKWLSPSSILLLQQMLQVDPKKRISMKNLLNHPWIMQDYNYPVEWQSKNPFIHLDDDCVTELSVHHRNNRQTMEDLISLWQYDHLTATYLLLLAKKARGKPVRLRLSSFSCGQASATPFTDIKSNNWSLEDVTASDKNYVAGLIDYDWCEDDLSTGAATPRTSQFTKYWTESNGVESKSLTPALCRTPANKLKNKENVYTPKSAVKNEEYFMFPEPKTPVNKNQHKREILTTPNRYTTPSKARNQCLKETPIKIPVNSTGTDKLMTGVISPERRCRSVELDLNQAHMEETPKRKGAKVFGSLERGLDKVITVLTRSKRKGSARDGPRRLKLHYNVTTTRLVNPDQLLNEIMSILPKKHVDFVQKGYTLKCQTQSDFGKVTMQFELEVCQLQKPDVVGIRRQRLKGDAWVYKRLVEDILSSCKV

Consider `NCc1ccc(Nc2c(C(=O)C3CC3)cnc3ccc(-c4cc(F)c(O)c(Cl)c4)cc23)cc1` [Example 505, (4-(4-(aminomethyl)phenylamino)-6-(3-chloro-5-fluoro-4-hydroxyphenyl)quinolin-3-yl)(cyclopropyl)methanone hydrochloride], for which the 50% inhibitory concentration (IC50) in the experiment with DU4475 (DU4475 cells, hydrochloride) came to 0.026 µM; on MELK (hydrochloride), 0.0027 µM; in the experiment on HT-1197 cells (setting [1]), 0.4 µM; in the experiment on T47D cells (72 hours, hydrochloride) it was 0.063 µM; in the experiment on 22Rv1 it was 0.088 µM; with A549 cells (hydrochloride), 0.067 µM.
Take `CN(C)Cc1ccc(Nc2c(S(C)(=O)=O)cnc3ccc(-c4cc(Cl)c(O)c(Cl)c4)cc23)cc1` [Example 401, 2,6-dichloro-4-(4-(4-((dimethylamino)methyl)phenylamino)-3-(methylsulfonyl)quinolin-6-yl)phenol hydrochloride]: the IC50 in the experiment on DU4475 (DU4475 cells, hydrochloride) amounted to 0.11 µM; on MELK (50 micro-M ATP, FITC-labeled histone H3 peptide substrate, IMAP fluorescence polarization, hydrochloride) it was 0.0055 µM; in the experiment with HT-1197 cells (setting [2]), 2.2 µM; in the experiment with T47D cells (72 hours, hydrochloride), 0.19 µM; in the experiment on 22Rv1, 0.52 µM; in the experiment on A549 cells (hydrochloride) it was 0.44 µM.
As to `CC(=O)c1cnc2ccc(-c3cc(F)c(O)c(Cl)c3)cc2c1Nc1ccc(N2CCN(C)CC2)nc1` [Example 488, 1-(6-(3-chloro-5-fluoro-4-hydroxyphenyl)-4-(6-(4-methylpiperazin-1-yl)pyridin-3-ylamino)quinolin-3-yl)ethanone], the half-inhibitory concentration (IC50) with DU4475 (DU4475 cells) was found to be 0.14 µM; on MELK, 0.0041 µM; in the experiment with HT-1197 cells (setting [3]), 2.1 µM; in the experiment with T47D cells (72 hours), 0.084 µM; in the experiment on 22Rv1, 0.38 µM; in the experiment on A549 cells, 0.2 µM.
With `COc1cc(-c2ccc3ncc(C(=O)C4CC4)c(N[C@H]4CC[C@H](CN)CC4)c3c2)cc(Cl)c1O` [Example 494, (4-(4-(aminomethyl)cyclohexylamino)-6-(3-chloro-4-hydroxy-5-methoxyphenyl)quinolin-3-yl)(cyclopropyl)methanone hydrochloride], the IC50 in the experiment on DU4475 (DU4475 cells, hydrochloride) amounted to 0.055 µM; at MELK (hydrochloride) it was 0.0016 µM; with HT-1197 cells (setting [1]), 0.48 µM; in the experiment with T47D cells (72 hours, hydrochloride) it was 0.081 µM; with 22Rv1, 0.13 µM; in the experiment with A549 cells (hydrochloride), 0.085 µM.
Consider `NCc1ccc(Nc2c(C(=O)C3CC3)cnc3ccc(-c4cc(Cl)c(O)c(Cl)c4)cc23)cc1` [Example 508, (4-(4-(aminomethyl)phenylamino)-6-(3,5-dichloro-4-hydroxyphenyl)quinolin-3-yl)(cyclopropyl)methanone hydrochloride], for which the IC50 in the experiment with DU4475 (DU4475 cells, hydrochloride) was 0.02 µM; on MELK (hydrochloride), 0.0017 µM; in the experiment on HT-1197 cells (setting [1]), 0.49 µM; in the experiment on T47D cells (72 hours, hydrochloride), 0.078 µM; in the experiment on 22Rv1, 0.099 µM; in the experiment with A549 cells (hydrochloride), 0.067 µM.
For the compound `O=C(c1cnc2ccc(-c3cc(F)c(O)c(Cl)c3)cc2c1Nc1ccc(CN2CCCC2)cc1)C1CC1` [Example 396, {6-(3-chloro-5-fluoro-4-hydroxyphenyl)-4-[4-(pyrrolidin-1-ylmethyl)phenylamino]quinolin-3-yl}(cyclopropyl)methanone], the IC50 in the experiment on DU4475 (Homo sapiens, DU-4475, DU4475 cells) came out at 0.084 µM; at MELK (setting [4]), 0.0088 µM; in the experiment on HT-1197 cells (setting [2]) it was 1.6 µM; in the experiment with T47D cells (Homo sapiens, T47D, 72 h) it was 0.21 µM; with 22Rv1, 0.38 µM; with A549 cells (Homo sapiens, A549, 72 h), 0.087 µM.
Turning to `CN(C)C[C@H]1CC[C@H](Nc2c(S(C)(=O)=O)cnc3ccc(-c4cc(Cl)c(O)c(Cl)c4)cc23)CC1` [Example 421], the IC50 was found to be 0.086 µM in the experiment with DU4475 (DU4475 cells); 0.0017 µM at MELK (setting [4]); 2.1 µM in the experiment on HT-1197 cells (setting [3]); 0.47 µM in the experiment on T47D cells (72 hours); 0.64 µM in the experiment with 22Rv1; 0.68 µM with A549 cells.
Take `CC(=O)c1cnc2ccc(-c3cc(Cl)c(O)c(Cl)c3)cc2c1Nc1ccc(CN2CCCC2)cc1` [Example 416, 1-(6-(3,5-dichloro-4-hydroxyphenyl)-4-(4-(pyrrolidin-1-ylmethyl)phenylamino)quinolin-3-yl)ethanone hydrobromide]: the IC50 with DU4475 (DU4475 cells, hydrobromide) came out at 0.053 µM; on MELK (50 micro-M ATP, FITC-labeled histone H3 peptide substrate, IMAP fluorescence polarization, hydrobromide) it was 0.0032 µM; with HT-1197 cells (HT1197 cells (negative control, no MELK expression), hydrobromide), 6.1 µM; in the experiment with T47D cells (72 hours, hydrobromide), 0.066 µM; in the experiment on 22Rv1, 0.19 µM; with A549 cells (hydrobromide), 0.11 µM.
For `CC(=O)c1cnc2ccc(-c3cc(F)c(O)c(Cl)c3)cc2c1N[C@H]1CC[C@H](NC(=O)C2CCCN2C)CC1` (stereo partly drawn) [Example 874, N-(1R,4R)-4-((3-acetyl-6-(3-chloro-5-fluoro-4-hydroxyphenyl)quinolin-4-yl)amino)cyclohexyl)-1-methylpyrrolidine-2-carboxamide hydrochloride], the IC50 was 0.12 µM with DU4475 cells; 0.016 µM on MELK (setting [5]); 1 µM in the experiment on HT-1197 cells (setting [6]); 0.04 µM in the experiment on T47D cells (Homo sapiens, T47D, 72 h); 0.18 µM in the experiment on 22Rv1 cells; 0.14 µM with A549 cells (Homo sapiens, A549, 72 h).
As for `CC(=O)c1cnc2ccc(-c3cc(F)c(O)c(Cl)c3)cc2c1N[C@H]1CC[C@H](NC(=O)C(N)C(C)C)CC1` (stereo partly drawn) [Example 907], the concentration for half-maximal inhibition (IC50) with DU4475 cells came out at 0.033 µM; at MELK (setting [5]), 0.0047 µM; with HT-1197 cells (setting [6]), 3.7 µM; in the experiment on T47D cells (Homo sapiens, T47D, 72 h) it was 0.016 µM; in the experiment on 22Rv1 cells it was 0.059 µM; in the experiment with A549 cells (Homo sapiens, A549, 72 h), 0.18 µM.
Consider `CC(=O)c1cnc2ccc(-c3cc(Cl)c(O)c(Cl)c3)cc2c1N[C@H]1CC[C@H](C(=O)N(C)C)CC1` [Example 865, (1r,4r)-4-((3-acetyl-6-(3,5-dichloro-4-hydroxyphenyl)quinolin-4-yl)amino)-N,N-dimethylcyclohexanecarboxamide hydrochloride], for which the half-inhibitory concentration (IC50) in the experiment with DU4475 cells stood at 0.94 µM; at MELK (setting [5]) it was 0.0093 µM; in the experiment on HT-1197 cells (setting [6]) it was 3.9 µM; in the experiment with T47D cells (Homo sapiens, T47D, 72 h), 0.38 µM; in the experiment on 22Rv1 cells it was 1.5 µM; in the experiment on A549 cells (Homo sapiens, A549, 72 h) it was 0.86 µM.
`CN1CCC(n2cc(Nc3c(S(C)(=O)=O)cnc4ccc(-c5cc(F)c(O)c(Cl)c5)cc34)cn2)CC1` [Example 900, 2-chloro-6-fluoro-4-(4-((1-(1-methyl-piperidin-4-yl)-1H-pyrazol-4-yl)amino)-3-(methylsulfonyl)quinolin-6-yl)phenol hydrochloride]: the IC50 in the experiment on DU4475 cells came to 0.54 µM; on MELK (setting [5]), 0.0032 µM; in the experiment on HT-1197 cells (setting [6]) it was 10 µM; with T47D cells (Homo sapiens, T47D, 72 h), 1.6 µM; in the experiment on 22Rv1 cells, 3.1 µM; in the experiment on A549 cells (Homo sapiens, A549, 72 h), 10 µM.
`O=C(c1cnc2ccc(-c3cc(F)c(O)c(Cl)c3)cc2c1Nc1cncc(CCN2CCCC2)c1)C1CC1` [Example 882, (6-(3-chloro-5-fluoro-4-hydroxyphenyl)-4-((5-(2-(pyrrolidin-1-yl)ethyl)pyridin-3-yl)amino)quinolin-3-yl)(cyclopropyl)methanone]: the IC50 with DU4475 cells was found to be 0.15 µM; on MELK (setting [5]), 0.019 µM; in the experiment with HT-1197 cells (setting [6]), 100 µM; in the experiment with T47D cells (Homo sapiens, T47D, 72 h), 100 µM; in the experiment with 22Rv1 cells it was 3.1 µM; with A549 cells (Homo sapiens, A549, 72 h), 0.27 µM.
Regarding `CC(=O)c1cnc2ccc(-c3cc(Cl)c(O)c(Cl)c3)cc2c1N[C@H]1CC[C@H](C(=O)N2CCN(C)CC2)CC1` [Example 898, 1-(6-(3,5-dichloro-4-hydroxyphenyl)-4-((1R,4R)-4-(4-methylpiperazine-1-carbonyl)cyclohexyl)amino) quinolin-3-yl)ethanone hydrochloride], the IC50 was 0.96 µM in the experiment with DU4475 cells; 0.0044 µM at MELK (setting [5]); 3 µM in the experiment with HT-1197 cells (setting [6]); 0.44 µM in the experiment on T47D cells (Homo sapiens, T47D, 72 h); 0.78 µM in the experiment on 22Rv1 cells; 0.87 µM with A549 cells (Homo sapiens, A549, 72 h).
Turning to `CC(=O)c1cnc2cc(F)c(-c3cc(Cl)c(O)c(Cl)c3)cc2c1N[C@H]1CC[C@H](CN2CCCC2)CC1` [Example 923, 1-(6-(3,5-dichloro-4-hydroxyphenyl)-7-fluoro-4-((1R,4R)-4-(pyrrolidin-1-ylmethyl)cyclohexyl)amino)quinolin-3-yl)ethanone hydrochloride], the half-inhibitory concentration (IC50) in the experiment with DU4475 cells amounted to 0.2 µM; at MELK (setting [5]), 0.007 µM; in the experiment on HT-1197 cells (setting [6]) it was 2.5 µM; with T47D cells (Homo sapiens, T47D, 72 h), 0.63 µM; in the experiment with 22Rv1 cells it was 0.29 µM; in the experiment on A549 cells (Homo sapiens, A549, 72 h), 0.39 µM.
